For orientation: Cmax means the highest concentration seen after dosing. One may read the MRT last as the average time that molecules of a dose stay in the body. Usually AUC(0-t) stands for the area under the concentration-time curve up to a stated or last time point. As usually defined, the Tmax is the time from dosing to the highest level.

A short description of series [1]: in vivo. The settings on record: male, Sprague-Dawley, rat, iv, 1 mg/kg.
A short description of series [2]: in vivo. Particulars: male, Sprague-Dawley, rat, iv, 1 mg/kg. The source holds these as a separate data set.
A short description of series [3]: in vivo. The settings on record: male, Sprague-Dawley, rat, po, 10 mg/kg.
The nature of series [4]: in vivo. Particulars: male, Sprague-Dawley, rat, po, 10 mg/kg. The source holds these as a separate data set.
Series [5] can be described thus: in vivo. Particulars: male, Sprague-Dawley, rat, po, 10 mg/kg. This is another data set of the same source.
Series [6] can be described thus: in vivo. The settings on record: male, Sprague-Dawley, rat, iv, 1 mg/kg. The source holds these as a separate data set.
A short description of series [7]: in vivo. Particulars: male, Sprague-Dawley, rat, po, 10 mg/kg. The source holds these as a separate data set.
Series [8] in a line: in vivo. The settings on record: male, Sprague-Dawley, rat, iv, 1 mg/kg. This is another data set of the same source.

Regarding `O=C(Cc1ccccc1F)Nc1cccc(Sc2ccc3c(/C=C/c4ccccn4)n[nH]c3c2)c1`, the maximum concentration (Cmax) at 24 h turned out to be 1470 ng/mL in “in vivo [1]” and 484 ng/mL in the series “in vivo [7]”. The MRT last at 24 h in “in vivo [2]” worked out at 1.62 h; in the series “in vivo [4]”, 2.73 h. The exposure AUC(0-t) at 24 h in “in vivo [3]” came to 1670 ng·h/mL; in “in vivo [8]”, 1590 ng·h/mL. Further, the Tmax at 24 h in the series “in vivo [5]” came out at 1.67 h; in the series “in vivo [6]”, 1.8 min.
